# Laboratory results: US20250026778A1 (TIUMBIO CO., LTD., priority 2021, published 2025)
# Target: T1, his-galectin-3 (Homo sapiens, UniProt P17931)
# T1 construct: purchased Abcam
# Assay: TR-FRET assay (in vitro galectin-3 binding inhibitory activity test)
# Conditions: Table 1; compound at 20 μM; 60 nM his-galectin-3, 15 nM biotin-ASF; read-out: % Inhibitory activity (at 20 μM)
# Method in brief: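 Compound is premixed with his-galectin-3 (60 nM final), then biotin-ASF (15 nM), Tb anti-His antibody (2 nM) and streptavidin-d2 (20 nM) are added. After at least 3.5 hours at RT in HEPES/NaCl buffer with Tween 20 and BSA, TR-FRET is read at 615/665 nm. DMSO serves as the uninhibited control, ASF omission as background.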
# T1 sequence (P17931 whole entry): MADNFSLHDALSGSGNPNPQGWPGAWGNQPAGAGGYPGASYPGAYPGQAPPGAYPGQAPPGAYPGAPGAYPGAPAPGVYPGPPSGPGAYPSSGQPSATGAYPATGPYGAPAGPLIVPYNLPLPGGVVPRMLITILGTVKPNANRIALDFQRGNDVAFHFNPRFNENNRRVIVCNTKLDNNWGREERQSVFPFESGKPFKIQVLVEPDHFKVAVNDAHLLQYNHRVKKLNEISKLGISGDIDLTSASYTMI
row,SMILES,inhibition at 20 µM [%]
1,"OC[C@H]1O[C@]2(OCC[C@H]2NCc2cccc(F)c2)[C@H](O)[C@@H](n2cc(-c3cc(F)c(F)c(F)c3)nn2)[C@H]1O [Compound A62, (4R,5S,7R,8R,9S,10R)-4-((3-fluorobenzyl)amino)-7-(hydroxymethyl)-9-(4-(3,4,5-trifluorophenyl)-1H-1,2,3-triazol-1-yl)-1,6-dioxaspiro[4.5]decane-8,10-diol]",50 to 75
2,"OC[C@H]1O[C@]2(OCC[C@H]2NCc2c(O)ccc(F)c2F)[C@H](O)[C@@H](n2cc(-c3cc(F)c(F)c(F)c3)nn2)[C@H]1O [Compound A63, (4R,5S,7R,8R,9S,10R)-4-((2,3-difluoro-6-hydroxybenzyl)amino)-7-(hydroxymethyl)-9-(4-(3,4,5-trifluorophenyl)-1H-1,2,3-triazol-1-yl)-1,6-dioxaspiro[4.5]decane-8,10-diol]",< 25
3,"O=C(O[C@@H]1[C@@H](n2cc(-c3cc(F)c(F)c(F)c3)nn2)[C@@H](O)[C@@H](CO)O[C@@]12CCCO2)c1ccccc1Cl [Compound A70, (5S,7R,8R,9S,10R)-8-hydroxy-7-(hydroxymethyl)-9-(4-(3,4,5-trifluorophenyl)-1H-1,2,3-triazol-1-yl)-1,6-dioxaspiro[4.5]decan-10-yl 2-chlorobenzoate]",< 25
4,"O=C(O[C@@H]1[C@@H](n2cc(-c3cc(F)c(F)c(F)c3)nn2)[C@@H](O)[C@@H](CO)O[C@@]12CCCO2)c1cccc(F)c1F [Compound A71, (5S,7R,8R,9S,10R)-8-hydroxy-7-(hydroxymethyl)-9-(4-(3,4,5-trifluorophenyl)-1H-1,2,3-triazol-1-yl)-1,6-dioxaspiro[4.5]decan-10-yl 2,3-difluorobenzoate]",25 to 50
5,"O=C(O[C@@H]1[C@@H](n2cc(-c3cc(F)c(F)c(F)c3)nn2)[C@@H](O)[C@@H](CO)O[C@@]12CCCO2)c1ccccn1 [Compound A72, (5S,7R,8R,9S,10R)-8-hydroxy-7-(hydroxymethyl)-9-(4-(3,4,5-trifluorophenyl)-1H-1,2,3-triazol-1-yl)-1,6-dioxaspiro[4.5]decan-10-yl picolinate]",50 to 75

# More lines, now with the values ahead:
row,inhibition at 20 µM [%],SMILES
1,< 25,"O=C(O[C@@H]1[C@@H](n2cc(-c3cc(F)c(F)c(F)c3)nn2)[C@@H](O)[C@@H](CO)O[C@@]12CCCO2)c1cccc(C(F)(F)F)c1 [Compound A73, (5S,7R,8R,9S,10R)-8-hydroxy-7-(hydroxymethyl)-9-(4-(3,4,5-trifluorophenyl)-1H-1,2,3-triazol-1-yl)-1,6-dioxaspiro[4.5]decan-10-yl 3-(trifluoromethyl)benzoate]"
2,50 to 75,"O=P(O)(O)O[C@@H]1[C@@H](n2cc(-c3cc(F)c(F)c(F)c3)nn2)[C@@H](O)[C@@H](CO)O[C@@]12CCCCO2 [Compound A76, (2R,3R,4S,5R,6S)-3-hydroxy-2-(hydroxymethyl)-4-(4-(3,4,5-trifluorophenyl)-1H-1,2,3-triazol-1-yl)-1,7-dioxaspiro[5.5]undecan-5-yl dihydrogen phosphate]"
3,25 to 50,"O=C(O[C@@H]1[C@@H](n2cc(-c3cc(F)c(F)c(F)c3)nn2)[C@@H](O)[C@@H](CO)O[C@@]12CCCO2)c1ncccc1F [Compound A77, (5S,7R,8R,9S,10R)-8-hydroxy-7-(hydroxymethyl)-9-(4-(3,4,5-trifluorophenyl)-1H-1,2,3-triazol-1-yl)-1,6-dioxaspiro[4.5]decan-10-yl 3-fluoropicolinate]"
4,< 25,"O=C(O[C@@H]1[C@@H](n2cc(-c3cc(F)c(F)c(F)c3)nn2)[C@@H](O)[C@@H](CO)O[C@@]12CCCO2)c1ccc(F)cc1F [Compound A78, (5S,7R,8R,9S,10R)-8-hydroxy-7-(hydroxymethyl)-9-(4-(3,4,5-trifluorophenyl)-1H-1,2,3-triazol-1-yl)-1,6-dioxaspiro[4.5]decan-10-yl 2,4-difluorobenzoate]"
5,< 25,"O=C(O[C@@H]1[C@@H](n2cc(-c3cc(F)c(F)c(F)c3)nn2)[C@@H](O)[C@@H](CO)O[C@@]12CCCO2)c1ccc(F)cc1 [Compound A79, (5S,7R,8R,9S,10R)-8-hydroxy-7-(hydroxymethyl)-9-(4-(3,4,5-trifluorophenyl)-1H-1,2,3-triazol-1-yl)-1,6-dioxaspiro[4.5]decan-10-yl 4-fluorobenzoate]"
6,25 to 50,"O=C(O[C@@H]1[C@@H](n2cc(-c3cc(F)c(F)c(F)c3)nn2)[C@@H](O)[C@@H](CO)O[C@@]12CCCO2)c1ccncc1 [Compound A80, (5S,7R,8R,9S,10R)-8-hydroxy-7-(hydroxymethyl)-9-(4-(3,4,5-trifluorophenyl)-1H-1,2,3-triazol-1-yl)-1,6-dioxaspiro[4.5]decan-10-yl isonicotinate]"

# Same assay, conditions: read-out: % Inhibitory activity (at 20 μM), Table 1; compound at 20 μM; 60 nM his-galectin-3, 15 nM biotin-ASF
row,SMILES,inhibition at 20 µM [%]
1,"O=C(O[C@@H]1[C@@H](n2cc(-c3cc(F)c(F)c(F)c3)nn2)[C@@H](O)[C@@H](CO)O[C@@]12CCCCO2)c1cccnc1 [Compound A61, (2R,3R,4S,5R,6S)-3-hydroxy-2-(hydroxymethyl)-4-(4-(3,4,5-trifluorophenyl)-1H-1,2,3-triazol-1-yl)-1,7-dioxaspiro[5.5]undecan-5-yl nicotinate]",25 to 50
2,"OC[C@H]1O[C@@]2(CCCO2)[C@H](OCc2cccc(Cl)c2)[C@@H](n2cc(-c3cc(F)c(F)c(F)c3)nn2)[C@H]1O [Compound A64, (5S,7R,8R,9S,10R)-10-((3-chlorobenzyl)oxy)-7-(hydroxymethyl)-9-(4-(3,4,5-trifluorophenyl)-1H-1,2,3-triazol-1-yl)-1,6-dioxaspiro[4.5]decan-8-ol]",< 25
3,"OC[C@H]1O[C@@]2(CCCO2)[C@H](OCc2cccc(F)c2F)[C@@H](n2cc(-c3cc(F)c(F)c(F)c3)nn2)[C@H]1O [Compound A65, (5S,7R,8R,9S,10R)-10-((2,3-difluorobenzyl)oxy)-7-(hydroxymethyl)-9-(4-(3,4,5-trifluorophenyl)-1H-1,2,3-triazol-1-yl)-1,6-dioxaspiro[4.5]decan-8-ol]",< 25
4,"CC(O[C@@H]1[C@@H](n2cc(-c3cc(F)c(F)c(F)c3)nn2)[C@@H](O)[C@@H](CO)O[C@@]12CCCO2)C(=O)O (stereo partly drawn) [Compound A66, 2-(((5S,7R,8R,9S,10R)-8-hydroxy-7-(hydroxymethyl)-9-(4-(3,4,5-trifluorophenyl)-1H-1,2,3-triazol-1-yl)-1,6-dioxaspiro[4.5]decan-10-yl)oxy)propanoic acid]",25 to 50
5,"O=C(O[C@@H]1[C@@H](n2cc(-c3cc(F)c(F)c(F)c3)nn2)[C@@H](O)[C@@H](CO)O[C@@]12CCCO2)c1ccccc1F [Compound A69, (5S,7R,8R,9S,10R)-8-hydroxy-7-(hydroxymethyl)-9-(4-(3,4,5-trifluorophenyl)-1H-1,2,3-triazol-1-yl)-1,6-dioxaspiro[4.5]decan-10-yl 2-fluorobenzoate]",25 to 50
6,"C[C@@H](O[C@@H]1[C@@H](n2cc(-c3cc(F)c(F)c(F)c3)nn2)[C@@H](O)[C@@H](CO)O[C@@]12CCCO2)C(=O)O [Compound A82, (R)-2-(((5S,7R,8R,9S,10R)-8-hydroxy-7-(hydroxymethyl)-9-(4-(3,4,5-trifluorophenyl)-1H-1,2,3-triazol-1-yl)-1,6-dioxaspiro[4.5]decan-10-yl)oxy)propanoic acid]",< 25

# Same assay, conditions: read-out: % Inhibitory activity (at 20 μM), Table 3, found values; compound at 20 μM; 60 nM his-galectin-3, 15 nM biotin-ASF
row,SMILES,inhibition at 20 µM [%]
1,"OC[C@H]1O[C@@]2(CCCO2)[C@H](OCc2cccc(F)c2F)[C@@H](n2cc(-c3cc(F)c(F)c(F)c3)nn2)[C@H]1O [Compound A65, (5S,7R,8R,9S,10R)-10-((2,3-difluorobenzyl)oxy)-7-(hydroxymethyl)-9-(4-(3,4,5-trifluorophenyl)-1H-1,2,3-triazol-1-yl)-1,6-dioxaspiro[4.5]decan-8-ol]",17.3
